Columns and labels:
[1] = test system: E17.5 hippocampal neurons; experiment: NaBt dose-dependent acetylation of nuclear proteins in neurons; format: cell-based; settings: E17.5 hippocampal neurons at 1DIV
Source text: FIG. 4A-4E are images from microscopy and graphs showing NaBt dose-dependent acetylation and cellular toxicity in PC12-ND6 cells and embryonic E17.5 hippocampal neurons. (A) Confocal micrographs of PC12-ND6 cells (referred to as ND6) grown in the absence or presence of NaBt for three days and labeled with an anti-acetylated Lys antibody (AcLys; green). Scale bar represents 10 μm. […] Results are expressed as relative fluorescence intensity±S.D. (n=250 cells per NaBt concentration; * p=0.0001). (C) Effect of NaBt on PC12-ND6 cell viability. […] Mean±SEM (n=250 cells for each experimental condition; * p=0.0001). (D) Confocal micrographs of NaBt dose-dependent acetylation in E17.5 hippocampal neurons (AcLys; green). Scale bar represents 10 μm.
Sodium butyrate increases protein acetylation in a dose-dependent manner without inducing cellular toxicity. A dose response analysis was performed to determine the optimal concentration of sodium butyrate (NaBt) for inducing maximal acetylation levels with minimal cellular toxicity. PC12-ND6 cells were treated with different concentrations of NaBt (2 mM, 5 mM, and 10 mM) for three days before assessing the degree of acetylated lysine residues by immunocytochemistry and cell viability by live-cell confocal microscopy using the Nuclear-ID™ stain.

[2] = test system: E17.5 hippocampal neurons; experiment: Mitochondrial mass in neurons (mito-GFP, quantitative immunohistochemistry COXVα/tubulin); format: cell-based; settings: NaBt-treated E17.5 neurons; control 7%
Source text: (§1) FIG. 7A-7F show images from microscopy and graphs showing NaBt increases mitochondrial mass. (A) Live cell confocal microscopy of E17.5 hippocampal neurons; high magnification in inset; scale bar=5 (B) Quantitative analysis of the mitochondrial biomass in E17.5 neurons using an anti-CoxVα antibody; *p<0.001. (C) Live cell confocal microscopy of PC12-ND6 cells; high magnification in inset; scale bar=5 (D) Flow cytometric analysis of mitochondrial mass; *p<0.001. (E) Confocal microscopy of E17.5 brains from E12.5 pregnant dams treated with PBS (sham) or NaBt; scale bar=20 (F) Quantitative analysis of mitochondrial mass; *p<0.001.
Experimental approaches. Five distinct molecular tools were used to investigate mitochondrial biogenesis: 1) the mitochondrial-specific dyes, MitoTracker® Green (MTG) and MitoTracker® Red (MTR); 2) the mito-GFP or mito-dsRed vector to fluorescently label mitochondria; 3) antibodies against mtDNA, COXVα, or SOD2; 4) the fluorescent PicoGreen® dye labeling mtDNA; and 5) quantitative PCR to determine mtDNA copy number.
The effect of NaBt was investigated in embryonic neuronal progenitor cells, E17.5 hippocampal neurons, which were transfected with the mito-GFP vector and then exposed to various concentrations of NaBt. […] Therefore, all subsequent treatment of E17.5 hippocampal neurons with NaBt was performed in the presence of 2 mM. […]

E17.5 neurons = experiment: In vivo mitochondrial mass of E17.5 brains from treated pregnant dams; design: species or system mice; settings: E12.5 pregnant dams, NaBt 1.2 g/Kg intraperitoneally vs PBS
Source text: as §1
Experimental paradigms. These are: 1) E17.5 differentiating hippocampal neurons expressing NeuroD6; 2) the PC12-NeuroD6 neuronal cell line recapitulating the early stages of differentiation; 3) E12.5 timed-pregnant dams treated intraperitoneally with NaBt (1.2 g/Kg) or PBS; and 4) cultured primary skin fibroblasts isolated from two MELAS patients and a healthy subject. Patient fibroblasts are the most suitable system to investigate the therapeutic potential of the butyrate derivatives (NaBt, TBN, and AN9) within the context of the patient's nuclear background and heteroplasmy, as MELAS animal models have not been generated due to polyploidy of the mt genome, heteroplasmic load, and influence of the nuclear background on MELAS phenotypic variability. […]

neuronal cells = experiment: Live cell Mg2+-based ATP assay; settings: NaBt-treated cells
Method: FIG. 9A-9C are graphs and images from microscopy showing that NaBt enhances mitochondrial bioenergetics. (A) Flow cytometric analysis of Δψm; *p<0.001. (B) ATP levels in live cells using a Mg^2+-based assay; *p<0.001. (C) Electron microscopy of mitochondria in control and NaBt-treated cells; scale bar=200 nm.
NaBt increases mitochondrial membrane potential (Δψm) and ATP levels. The MTR-based data raised the question: could NaBt also enhance mitochondrial bioenergetics? Δψm was assessed by live cell confocal microscopy and flow cytometry using the TMRM dye, which accumulates in the mitochondrial matrix in a Δψm-dependent fashion. A 1.5-fold increase in Δψm in NaBt-treated cells was observed (FIG. 9A). To test whether enhanced Δψm led to increased ATP output, ATP levels were monitored using the live cell Mg^2+-based ATP assay, which is compatible with the TMRM dye, allowing simultaneous recordings. A 1.6-fold increase in ATP levels in NaBt-treated cells was observed (FIG. 9B), in line with the MTR- and TMRM-based findings and the elongated mitochondrial morphology.

[3] = test system: E17.5 hippocampal neurons; experiment: Neuronal stage 3 frequency with chloramphenicol and NaBt; format: cell-based
Source text: FIG. 16A-16I are images from microscopy and a graph showing that Pre-treatment of E17.5 hippocampal neurons with NaBt protects against chloramphenicol-induced loss of neuronal differentiation. (A-D) Confocal micrographs of E17.5 hippocampal neurons exposed to different concentrations of chloramphenicol at 2DIV and labeled with anti tubulin antibody (red) and nuclear counterstain DAPI (blue) at 3DIV. Scale bar represents 10 μm. (E-H) Confocal micrographs of E17.5 hippocampal neurons treated with NaBt (2 mM) at 1DIV prior to exposure to different concentrations of chloramphenicol at 2DIV and labeled with anti tubulin antibody (red) and nuclear counterstain DAPI (blue) at 3DIV. Scale bar represents 10 μm. (I) Graph of E17.5 β-III^+ hippocampal neurons at the neuronal stage 3. Mean±S.D. (n=250 cells; compared to untreated control *p=0.0001; compared to the corresponding non-NaBt treated sample **p=0.0001; compared to non-NaBt treated cells exposed to Cm at 30 μM‡p=0.007).
The consequences of chloramphenicol exposure on untreated or NaBt-treated E17.5 hippocampal neurons was examined. At 1DIV, dissociated E17.5 hippocampal neurons were switched to differentiation medium in the absence or presence of NaBt (2 mM) for 24 hours before being treated with increasing concentrations of chloramphenicol (0, 15, 30, and 60 μM) for 24 hours. At 3DIV, their phenotypic differentiation was examined by immunocytochemistry using an antibody against the pan-neuronal marker β-III tubulin and quantified the percent of neurons having reached the developmental stage 3 for each experimental condition. As expected, only half of untreated neurons reached stage 3 in the absence of NaBt, while more than 90% of NaBt-treated neurons achieved such degree of differentiation, thereby forming an elaborate neuritic network (FIGS. 16A, E, and I).

CCCC(=O)[O-].[Na+] [NaBt, sodium butyrate]
NaBt concentration resulting in near maximal acetylation levels of nuclear proteins [1]: 2 mM | mitochondria as percent of the cell volume [2]: 18% | increase of in vivo mitochondrial mass of E17.5 neurons (E17.5 neurons): 1.6 fold | increase in ATP levels (neuronal cells): 1.6 fold | frequency of advanced neuronal stage with NaBt pre-treatment ([3]; NaBt 2 mM prior to chloramphenicol up to 60 μM): sustained the frequency of advanced neuronal stage | percent of neurons reaching stage 3 ([3]; NaBt 2 mM, no chloramphenicol, 3DIV): more than 90%

Source: US10272056B2, “Treatment for mitochondrial diseases” (The George Washington University a Congressionally …, priority 2015, dated 2019)
